We go through seven molecules from ChEMBL document CHEMBL4184103, “Cytotoxicity and inhibition of leukemic cell proliferation by sesquiterpenes from rhizomes of Mah-Lueang (Curcuma cf. viridiflora Roxb.)” (Bioorg Med Chem Lett, 2018).

In assay [1] the test system is MOLT-4. As to the kind of experiment: Cytotoxicity against human MOLT4 cells assessed as reduction in cell viability. The class given is functional, cell-based.
The test system of assay [2] is KG-1a. As to the kind of experiment: Cytotoxicity against human KG1a cells assessed as reduction in cell viability after 48 hrs by MTT assay. The class given is functional, cell-based. For orientation: Tetrazolium dyes change colour on reduction, which living cells bring about.
Assay [3] deals with MOLT-4. As to the kind of experiment: Cytotoxicity against human MOLT4 cells assessed as reduction in cell viability after 48 hrs by MTT assay. The class given is functional, cell-based.
Assay [4] relates to KG-1a. As to the kind of experiment: Down regulation of WT1 protein levels in human KG1a cells after 48 hrs by Western blot analysis relative to control. The class given is functional. (In western blotting, separated proteins are transferred to a membrane and probed.)
For assay [5], the system named is MOLT-4. As to the kind of experiment: Down regulation of WT1 protein levels in human MOLT4 cells after 48 hrs by Western blot analysis relative to control. The class given is functional.
Assay [6] concerns KB. Description: Cytotoxicity against human KB cells assessed as reduction in cell viability. The class given is functional, cell-based.
The subject of assay [7] is MCF7. Description: Cytotoxicity against human MCF7 cells assessed as reduction in cell viability. The class given is functional, cell-based.
The subject of assay [8] is NCI-H187. As to the kind of experiment: Cytotoxicity against human NCI-H187 cells assessed as reduction in cell viability. The class given is functional, cell-based.
In assay [9] the test system is KG-1a. Description: Antiproliferative activity against human KG1a cells at IC20 after 48 hrs by trypan blue exclusion assay relative to control. The class given is functional.
Assay [10] concerns MOLT-4. Description: Antiproliferative activity against human MOLT4 cells at IC20 after 48 hrs by trypan blue exclusion assay relative to control. The class given is functional.
In assay [11] the test system is MCF7. As to the kind of experiment: Cytotoxicity against human MCF7 cells assessed as reduction in cell viability after 72 hrs by MTT assay. The class given is functional, cell-based.
The subject of assay [12] is PC-3. Description: Cytotoxicity against human PC3 cells assessed as reduction in cell viability after 72 hrs by MTT assay. The class given is functional, cell-based.
Assay [13] relates to HT-29. As to the kind of experiment: Cytotoxicity against human HT-29 cells assessed as reduction in cell viability after 72 hrs by MTT assay. The class given is functional, cell-based.
Assay [14] relates to HUVEC. Description: Cytotoxicity against human HUVEC cells assessed as reduction in cell viability after 72 hrs by MTT assay. The class given is functional, cell-based.
Assay [15] deals with Ca-Ski. Description: Cytotoxicity against human CaSki cells assessed as reduction in cell viability after 72 hrs by MTT assay. The class given is functional, cell-based.
Assay [16] concerns MOLT-4. As to the kind of experiment: Down regulation of WT1 protein levels in human MOLT4 cells at 5 to 15 uM after 48 hrs by Western blot analysis relative to control. The class given is functional.
The subject of assay [17] is KG-1a. Description: Potency index, ratio of doxorubicin IC50 to compound IC50 for human KG1a cells. The class given is functional.
Assay [18] concerns MOLT-4. Description: Potency index, ratio of doxorubicin IC50 to compound IC50 for human MOLT4 cells. The class given is functional.
The subject of assay [19] is HeLa. As to the kind of experiment: Growth inhibition of human HeLa cells after 48 hrs by MTT assay. The class given is functional, cell-based.
Assay [20] concerns HepG2. Description: Growth inhibition of human HepG2 cells after 48 hrs by MTT assay. The class given is functional, cell-based. The settings on record: HepG2, 48 h.
The subject of assay [21] is HL-60. As to the kind of experiment: Growth inhibition of human HL60 cells after 48 hrs by MTT assay. The settings on record: HL-60, 48 h. The class given is functional, cell-based.
In assay [22] the test system is PC-3. As to the kind of experiment: Growth inhibition of human PC3 cells after 48 hrs by MTT assay. The class given is functional, cell-based. The settings on record: PC-3, 48 h.
Assay [23] concerns SGC-7901. As to the kind of experiment: Growth inhibition of human SGC7901 cells after 48 hrs by MTT assay. The class given is functional, cell-based. The settings on record: SGC-7901, 48 h.
The test system of assay [24] is HT-1080. Description: Growth inhibition of human HT1080 cells after 48 hrs by MTT assay. The class given is functional, cell-based. The settings on record: HT-1080, 48 h.
Setting [25] is: Homo sapiens, MOLT-4, 48 h, read-out: IC50.

The term IC50 denotes the midpoint of a concentration-inhibition curve. A word on the IC20: it is the concentration at which the effect reaches the 20% level.

Each structure is given as a SMILES string. Values after ≈ are worked out from the molar mass of the structure shown. Values joined by “and” are separate entries in the source; they are usually repeats but may differ in a detail not shown here. Identical values can stand only once.

For the molecule `CC[C@]1(O)C[C@H]2CN(CCc3c([nH]c4ccccc34)[C@@](C(=O)OC)(c3cc4c(cc3OC)N(C=O)[C@H]3[C@@](O)(C(=O)OC)[C@H](OC(C)=O)[C@]5(CC)C=CCN6CC[C@]43[C@@H]65)C2)C1` [VINCRISTINE], in assay [1], the IC50 was found to be 0.00063 µg/mL (≈ 0.000764 µM).

As for `CC(C)=C1C[C@H]2[C@@H](CC[C@]2(C)O)[C@](C)(O)CC1=O` [ZEDOARONDIOL], in assay [2], the IC20 turned out to be 60 µg/mL (≈ 238 µM). Besides, the concentration for half-maximal inhibition (IC50) in [2] was over 100 µg/mL; in assay [3] (setting [25]), 77.6 µg/mL (≈ 308 µM); in assay [3] (molt-4), 49 µg/mL (≈ 194 µM); in [6], over 50 µg/mL; in assay [7], over 50 µg/mL; in assay [8] it was over 50 µg/mL. The Activity in assay [4] stood at 95.52%; in assay [5], 63.17%; in assay [9] it was 30.48%; in [10], 48.99%.

Regarding `CC(C)=C1C[C@@H]2O[C@@]2(C)CC/C=C(\C)CC1=O`, the IC20 in assay [2] is 20 µg/mL (≈ 85.3 µM). For the same molecule, the IC50 in [2] was over 100 µg/mL; in assay [3] (setting [25]), over 100 µg/mL; in [3] (molt-4), 53 µg/mL (≈ 226 µM); in assay [11] (Homo sapiens, MCF7, 72 h), 37.2 µg/mL (≈ 159 µM); in [12] (Homo sapiens, PC-3, 72 h), 43.9 µg/mL (≈ 187 µM); in assay [13] (Homo sapiens, HT-29, 72 h), 39.6 µg/mL (≈ 169 µM). For the same molecule, in assay [14] (Homo sapiens, HUVEC, 72 h), the IC50 came out at 48.4 µg/mL (≈ 207 µM). In addition, the Activity in assay [4] was determined as 92.22%; in assay [5], 62.53%; in assay [9], 24.27%; in assay [10], 55.7%.

Take `CC(C)=C1CC(=O)[C@@H](C)CC/C=C(\C)CC1=O`: the 20% effect concentration (IC20) in assay [2] is 30 µg/mL (≈ 128 µM). The IC50 was over 100 µg/mL in assay [2]; > 100 µg/mL and 35 µg/mL in assay [3] (molt-4); 33 µg/mL (≈ 141 µM) in [11] (mcf7); 21.7 µg/mL (≈ 92.6 µM) in assay [15]; 19.1 µg/mL (≈ 81.5 µM) in [12] (pc-3); 22.7 µg/mL (≈ 96.9 µM) in assay [13] (ht-29). Also, the IC50 in assay [14] (huvec) came out at 24 µg/mL (≈ 102 µM). Besides, the Activity in [4] stood at 44.3%; in assay [5], 55.25%; in assay [9] it was 19.92%; in [10], 49.44%.

On to `COc1cccc2c1C(=O)c1c(O)c3c(c(O)c1C2=O)C[C@@](O)(C(=O)CO)C[C@@H]3O[C@H]1C[C@H](N)[C@H](O)[C@H](C)O1` [DOXORUBICIN], for which the values for the IC50 in assay [2] and in assay [3] (setting [25]) were 0.65 µg/mL (≈ 1.2 µM) and 0.46 µg/mL (≈ 0.846 µM), respectively.

`COc1cc(/C=C/C(=O)CC(=O)/C=C/c2ccc(O)c(OC)c2)ccc1O` [CURCUMIN] yielded an Activity in [16] of 90%.

Turning to `C/C1=C\Cc2c(C)coc2C/C(C)=C/CC1` [ISOFURANODIENE], in [2], the IC20 came to 25 µg/mL (≈ 116 µM). Also, the concentration for half-maximal inhibition (IC50) is 50.1 µg/mL (≈ 232 µM) in assay [2]; 39.6 µg/mL (≈ 183 µM) in assay [3] (setting [25]); 23 µg/mL (≈ 106 µM) in assay [3] (molt-4); 0.6 to 4 µg/mL (≈ 2.77 to 18.5 µM) in assay [19]; 0.6 to 4 µg/mL (≈ 2.77 to 18.5 µM) in assay [20]; 0.6 to 4 µg/mL (≈ 2.77 to 18.5 µM) in [21]. For the same molecule, the half-inhibitory concentration (IC50) in assay [22], in [23] and in [24] was 0.6 to 4 µg/mL (≈ 2.77 to 18.5 µM) throughout. In addition, the “Ratio IC50” value in assay [17] amounted to 77; in assay [18], 86. Further, the Activity in [4] is given as 58.08%; in [5], 32.17%; in assay [9] it was 19.58%; in [10], 10.74%.
